{"source": "patent US20080064665A1", "about": "“Combination approaches to cancer treatment” (priority 2006, published 2008)", "key": {"[1]": {"test_system": "H460 human lung cancer xenografts", "assay": "Growth delay and survival of H460 xenografts, PR-104, docetaxel and schedules thereof", "format": "in vivo, CD-1 nude mice", "description": "Specific pathogen-free homozygous nu/nu (CD-1) nu/nu [NIH-III] (Charles River Laboratories, Wilmington, Mass.) were provided by the Animal Resources Unit (University of Auckland) at 7 to 9 weeks of age. Mice were housed in groups of 4-7 in a temperature-controlled room (22±2° C.) with a 12-hour light/dark cycle and were fed ad libitum water and a standard rodent diet (Harlan Teklad diet 2018i). All animals were uniquely identifiable by ear tag number. All animal protocols were approved by the Animal Ethics Committee of the University of Auckland (AEC approval C337).\nA single cell suspension was prepared by trypsinisation (1× Trypsin/EDTA) from spinner culture, counted, and suspended in ∝MEM to give required cell concentration, as listed below. Mice were inoculated (100 μL) at a single subcutaneous site (right flank) using a 1 ml syringe with a 26 gauge needle.\nSeven days post-inoculation, tumors were measured three times per week until they reached the treatment size (mean diameter 5.8-8.2 mm; average 7.0 mm). Mean tumor diameter was averaged from the longest diameter (length) multiplied by the perpendicular measurement (width). Tumor diameters were estimated when mean diameter was below 5 mm, and measured with electronic callipers when ≧5 mm.\nTumor volume was calculated using the formula:\nwhere L=length and w=width in mm of the carcinoma.\n(§1) Excess compound was discarded.\nTumor bearing mice were assigned randomly to treatment groups when tumor diameter reached treatment size. Animals were rejected if xenografts show evidence of: (i) attachment to underlying muscle (due to risk of local invasion), (ii) signs of ulceration, or (iii) indolent tumor growth. Drug administration begins on the day of assignment. In general, 0.7-0.8 of the inoculated population is assigned to the experiment. Drug administration was undertaken as outlined above.\nDuring and after treatment, tumor size and body weights were measured regularly. Animals were culled if (i) the average diameter of the tumor exceeds 15 mm (survival end-point), (ii) body weight loss exceeds 15% of pre-treatment value, (iii) there is evidence of prolonged or excessive morbidity, or (iv) tumor ulceration occurred. Each experiment was terminated at day 120 after treatment initiation.\nKaplan-Meier plots were constructed and median survival was calculated (TTE50). The statistical significance of any differences in overall survival between treatment groups and control was analysed by Log Rank P statistical test. The log-rank test was calculated using XLStat Life (Kovach Computing Services Ltd). The statistic significance in overall survival between each treatment group and control was determined by testing the null hypothesis that the survival curves are identical in the two populations.\nThe time for individual tumors to increase in volume by 4 fold relative to treatment day-1 (relative tumor volume×4−RTV^4) was recorded. The median RTV^4 is calculated for each group and the difference in RTV^4 between control and treatment groups is described as the Tumor Growth Delay (TGD) in days. RTV^4 values notmalise for any bias in tumor treatment volume on day-1. The RTV^4 of each treatment group is tested for statistical difference from control group by unpaired t-test and Mann Whitney U test (means and medians, respectively).\nIn circumstances where long-term controls (LTCs) occur, an RTV^4 value equal to the total duration of the experiment is assigned for the purposes of statistical analysis (usually 120 days). Where one or more LTC is present the median RTV^4 of each treatment group is tested for statistical difference from control group by Mann Whitney U test only. The statistical analysis was conducted at a p level of 0.05 (two-tailed). SigmaStat v3.10 was used for the statistical analysis of RTV^4 values. SigmaPlot v9 was used for all graph plots.\nWeight loss nadirs (time independent maxima) were recorded for each treatment group."}, "[2]": {"test_system": "SiHa human cervical cancer xenograft", "assay": "Growth delay and survival of SiHa xenograft, PR-104 and docetaxel", "format": "in vivo, Rag-1^null mice", "source_text": "Analysis: End-points will be expressed as TTE50, Median RTV^4 and plotted in Kaplan-Meier Plots and analysed by Log Rank P statistical test. Weight loss nadir will be compared between schedules."}, "[3]": {"test_system": "22RV1 androgen-resistant human prostate cancer xenograft", "assay": "Growth delay and survival of 22RV1 xenograft, PR-104 and docetaxel", "format": "in vivo, CD-1 nude mice", "description": "(§2) End-point: After treatment, tumor size and body weights were measured regularly and mice were culled either when the average diameter of the tumor reached 15 mm (end-point), the tumor ulcerated or when the body weight change reached −15%. Experiment was ended and all remaining mice culled 120 days after treatment.\n(§3) Analysis: End-points will be expressed as TTE50, Median RTV^4 and plotted in Kaplan-Meier Plots and analysed by Log Rank P statistical test."}, "[4]": {"test_system": "A2780 human ovarian cancer xenografts", "assay": "Growth delay and survival of A2780 xenografts, PR-104 and docetaxel", "format": "in vivo, CD-1 nude mice", "description": "as §2, §3"}, "[5]": {"test_system": "SiHa cervical cancer xenografts", "assay": "Excision assay of SiHa xenografts (clonogenic log cell kill)", "format": "in vivo, CD-1 Fox^nu mice", "settings": "SN 28343 91.2 mg/kg, SN 29303 375 mg/kg; for cell kill versus controls in excision assay (in words): SiHa human cervical tumor xenograft, docetaxel 65 mg/kg i.p.; for Log Cell Kill versus controls (Mean ± SEM): SiHa tumors excised 18 hours after treatment, docetaxel 65 mg/kg, i.p.", "description": "As for Part 1 except for except where noted below.\nas §1\nDate, body weights (used to adjust injection volume), tumor diameter, unique identifier (tail markings), body weight, and volume to be injected were recorded. Animals were dosed with the test articles i.p. following a defined treatment schedule:\n18 hours after treatment the mice were culled by cervical dislocation and tumors removed by dissection, in a sterile laminar flow hood. Whole tumor weights were recorded. Tumors were minced using scissors or scalpels until a fine minceate was obtained, and up to 500 mg of minceate was transferred into a pre-tiered Falcon®14 ml test tube containing a sterile magnetic spin bar and re-weighed.\nSamples were then incubated in 37° C. water bath for 30 min over a magnetic stirrer.\nAfter incubation any undissociated material was allowed to settle for 1 minute. […] Pellets were re-suspended in 10 ml of medium. Cells/ml was determined using an electronic particle counter (Beckman Coulter Electronics, Z2 model). Samples were then diluted to 1×10^5cells/ml and 6-fold serial dilutions made down to 4.6×10^2cells/ml.\n1 ml of each sample was plated in triplicate for each dilution into appropriately labelled Falcon® P-60 tissue culture dishes containing 4 ml of αMEM+10% FCS+PS.\nWhere possible, all plates were counted; those colonies counted=larger than 50 cells, confirmed with the light microscope. TMTC was recorded for those plates where there were too many colonies to count.\nThe criteria for selecting the best dilution to use for calculating plating efficiency (PE):\nHigher dilution count>100 colonies (average); lower dilution 10-100 colonies, use PE from the dilution with fewer colonies.\nHigher dilution count >100; lower dilution count <20, use average data from both.\nHigher dilution count <100; lower dilution count <20, use PE from the dilution with more colonies.\nHigher dilution count <100; lower dilution count >20, use average data from both. Note: For the 10^5 dilution, take as the “lower limit” colony count a total count of 30, (sum of all replicates)."}, "[6]": {"settings": "H460 xenograft, PR-104 652 mg/kg, docetaxel 73 mg/kg, q2w×2"}, "[7]": {"settings": "Rag-1 mice, PR-104 652 mg/kg, docetaxel 73 mg/kg, q2w×2"}, "[8]": {"settings": "22RV1 xenograft, PR-104 652 mg/kg, docetaxel 73 mg/kg, q2w×2"}, "[9]": {"settings": "A2780 xenograft, PR-104 652 mg/kg, docetaxel 73 mg/kg, q2w×2"}}, "note": "Values joined by “and” are separate entries in the source; they are usually repeats but may differ in a detail not shown here. Equal values may be shown once."}
{"smiles": "CS(=O)(=O)OCCN(CCBr)c1c(C(=O)NCCOP(=O)(O)O)cc([N+](=O)[O-])cc1[N+](=O)[O-]", "note": "[PR-104, 2-[(2-bromoethyl)-2,4-dinitro-6-[[[2-(phosphonooxy)ethyl]amino]-carbonyl]anilino]ethyl methane sulfonate]", "values": [{"measurement": "Weight Loss Nadir (%)", "setting": "[1]; H460 xenograft, CD-1 nude mice, mean body weight loss nadir, PR-104 652 mg/kg, docetaxel 73 mg/kg, i.p., q2w×2", "result": "−4.9 ± 1.0", "unit": "%"}, {"measurement": "Unscheduled deaths", "setting": "[1]; H460 xenograft, female CD-1 nude mice, total dose PR-104 652 mg/kg, docetaxel 73 mg/kg, i.p., q2w×2", "result": 0}, {"measurement": "LTC (long term control, failed to reach end-point within duration of experiment)", "setting": "[1]; H460 xenograft, 120 day experiment, PR-104 652 mg/kg, docetaxel 73 mg/kg, q2w×2", "result": 0}, {"measurement": "Median RTV^4 (median time for tumor volume to increase 4-fold)", "setting": "[1]; [6]", "result": 23, "unit": "days"}, {"measurement": "TGD (tumor growth delay; relative gain in median RTV^4 versus control)", "setting": "[1]; [6]", "result": 187.5, "unit": "%"}, {"measurement": "TTE50 (median time for tumor end-point to occur from day of treatment)", "setting": "[1]; H460 xenograft, end-point >15 mm mean diameter, PR-104 652 mg/kg, docetaxel 73 mg/kg, q2w×2", "result": 29, "unit": "days"}, {"measurement": "Gain TTE50 (improvement in median survival)", "setting": "[1]; H460 xenograft, versus control (11 days), PR-104 652 mg/kg, docetaxel 73 mg/kg, q2w×2", "result": 18, "unit": "days"}, {"measurement": "activity against H460 xenograft (in words)", "setting": "[1]; tumor growth delay and survival end-points", "result": "significant single agent activity"}, {"measurement": "activity against SiHa xenograft (in words)", "setting": "[2]; Rag-1 mice", "result": "modestly active"}, {"measurement": "LTC (long term control)", "setting": "[2]; Rag-1 mice, 120 day experiment", "result": 0}, {"measurement": "Weight Loss Nadir (%)", "setting": "[2]; Rag-1 mice, PR-104 652 mg/kg, docetaxel 73 mg/kg, i.p., q2w×2", "result": "−2.2±1.2", "unit": "%"}, {"measurement": "Median RTV^4", "setting": "[2]; [7]", "result": 16, "unit": "days"}, {"measurement": "TGD (relative gain in median RTV^4 versus control)", "setting": "[2]; [7]", "result": 33.3, "unit": "%"}, {"measurement": "TTE50 (median time for tumor end-point to occur)", "setting": "[2]; [7]", "result": 25, "unit": "days"}, {"measurement": "Day of death", "setting": "[2]; Rag-1 mice, day of unscheduled death", "result": "14^B"}, {"measurement": "improvement in tumor growth delay", "setting": "[2]; Rag-1 mice, versus control", "result": 4, "unit": "days"}, {"measurement": "Gain TTE50 (improvement in median survival)", "setting": "[2]; Rag-1 mice, versus control (17 days)", "result": 8, "unit": "days"}, {"measurement": "Unscheduled deaths", "setting": "[2]; female Rag-1 mice, total dose PR-104 652 mg/kg, docetaxel 73 mg/kg, i.p., q2w×2", "result": 1}, {"measurement": "activity against 22RV1 xenograft (in words)", "setting": "[3]; 22RV1 prostate xenograft model", "result": "modest single-agent antitumor activity"}, {"measurement": "Weight Loss Nadir (%)", "setting": "[3]; 22RV1 xenograft, CD-1 nude mice, PR-104 652 mg/kg, docetaxel 73 mg/kg, i.p., q2w×2", "result": "−2.1±0.5", "unit": "%"}, {"measurement": "LTC (long term control)", "setting": "[3]; 22RV1 xenograft, 120 day experiment", "result": 0}, {"measurement": "Median RTV^4", "setting": "[3]; [8]", "result": 23, "unit": "days"}, {"measurement": "TGD (relative gain in median RTV^4 versus control; TGI in text)", "setting": "[3]; [8]", "result": 156, "unit": "%"}, {"measurement": "TTE50", "setting": "[3]; [8]", "result": 26.5, "unit": "days"}, {"measurement": "median tumor growth delay", "setting": "[3]; 22RV1 xenograft, versus control", "result": 14, "unit": "days"}, {"measurement": "Gain TTE50 (improvement in median survival)", "setting": "[3]; 22RV1 xenograft, versus control (9.5 days)", "result": 17, "unit": "days"}, {"measurement": "Weight Loss Nadir (%)", "setting": "[4]; A2780 xenograft, CD-1 nude mice, PR-104 652 mg/kg, docetaxel 73 mg/kg, i.p., q2w×2", "result": "−6.1±1.2", "unit": "%"}, {"measurement": "LTC (long term control)", "setting": "[4]; A2780 xenograft, 120 day experiment", "result": 0}, {"measurement": "Median RTV^4", "setting": "[4]; [9]", "result": 8, "unit": "days"}, {"measurement": "TGD (relative gain in median RTV^4 versus control)", "setting": "[4]; [9]", "result": "78% and 77.8%"}, {"measurement": "TTE50", "setting": "[4]; [9]", "result": 10, "unit": "days"}, {"measurement": "improvement in median tumor growth delay", "setting": "[4]; A2780 xenograft, versus control", "result": 3.5, "unit": "days"}, {"measurement": "Gain TTE50 (improvement in median survival)", "setting": "[4]; A2780 xenograft, versus control (6 days)", "result": 4, "unit": "days"}, {"measurement": "activity against A2780 xenograft (in words)", "setting": "[4]; based on tumor growth delay", "result": "no activity"}]}
{"smiles": "O=C(NCCOP(=O)(O)O)c1cc([N+](=O)[O-])cc([N+](=O)[O-])c1N(CCBr)CCBr", "note": "[SN 28343, 2-[Bis(2-bromoethyl)amino]-N-(2-hydroxyethyl)-3,5-dinitrobenzamide phosphate ester]", "values": [{"measurement": "cell kill versus controls in excision assay (in words)", "setting": "[5]", "result": "moderate and significant cell killing"}, {"measurement": "Log Cell Kill versus controls (Mean ± SEM)", "setting": "[5]", "result": 0.821}]}
{"smiles": "CS(=O)(=O)OCCN(CCBr)c1ccc([N+](=O)[O-])c(C(=O)NCCCOP(=O)(O)O)c1[N+](=O)[O-]", "note": "[SN 29303, 2-[2-bromoethyl)-2,4-dinitro-3-({[3-(phosphonooxy)propyl]amino}carbonyl) anilino]ethyl methanesulfonate]", "values": [{"measurement": "cell kill versus controls in excision assay (in words)", "setting": "[5]", "result": "moderate and significant cell killing"}, {"measurement": "Log Cell Kill versus controls (Mean ± SEM)", "setting": "[5]", "result": 0.770}]}
